Data published in US20230053540A1, “TREATMENT OF LIVER INJURY” (Massachusetts Institute of Technology, priority 2019, published 2023).

Tested on: hepatocytes
Experiment: Seq-Well scRNA-Seq of hepatocytes after APAP overdose (signature scores, DEG vs untreated)
Format: in vivo, mouse
Conditions: APAP vs UT, composite DEG

## CC(=O)Nc1ccc(O)cc1 [APAP, acetaminophen]
  Ndufs4 logFC: −0.3132
  Ndufs8 logFC: −0.3614
  Ndufv2 logFC: −0.3276
  Ndufv3 logFC: −0.3971
  Neat1 logFC: 0.6374
  Nedd4l logFC: 0.2812
  Nedd8 logFC: −0.3564
  Nfe2l1 logFC: 0.2703
  Nid1 logFC: 0.3426
  Nme1 logFC: −0.4329
  Nop10 logFC: −0.2919
  Nop58 logFC: 0.6634
  Nr0b2 logFC: −0.293
  Nr1d2 logFC: 0.4306
  Nr1i3 logFC: 0.4259
  Nr2f6 logFC: −0.3754
  Nrip1 logFC: 0.2729
  Oaf logFC: −0.7329
  Oat logFC: −1.225
  Orm1 logFC: 0.3651
  Osbpl1a logFC: 0.2728
  Osbpl9 logFC: 0.2788
  Ostc logFC: 0.2658
  Otc logFC: −0.299
  P4hb logFC: 0.4052
  Pabpc1 logFC: 0.4949
  Pacsin2 logFC: 0.3708
  Padi3 logFC: 0.2957
  Pak2 logFC: 0.2815
  Palld logFC: 0.3414
  Pank1 logFC: −0.3527
  Paqr9 logFC: −0.3323
  Pbld1 logFC: −0.4425
  Pcbd1 logFC: −0.6878
  Pcbp2 logFC: 0.3103
  Pck1 logFC: −0.6522
  Pdia3 logFC: 0.5938
  Pecr logFC: −0.3981
  Pex11a logFC: 0.3508
  Pgrmc1 logFC: 0.3502
  Phc2 logFC: 0.312
  Phf20l1 logFC: 0.3085
  Phlda1 logFC: 0.5492
  Pigr logFC: 0.3868
  Pipox logFC: 0.2725
  Pla2g7 logFC: 0.2823
  Plek logFC: 0.3089
  Plin2 logFC: 1.461
  Plin5 logFC: 0.3521
  Plk3 logFC: 0.4166
  Plscr1 logFC: 0.4445
  Pnkd logFC: −0.2928
  Pnpla7 logFC: −0.3016
  Pnpla8 logFC: 0.2956
  Pon1 logFC: −0.6858
  Por logFC: 0.336
  Ppara logFC: 0.3589
  Ppp1r12a logFC: 0.3563
  Prdx1 logFC: −0.5292
  Prdx4 logFC: −0.4176
  Prdx5 logFC: −0.2821
  Prkaa2 logFC: 0.2636
  Prodh2 logFC: 0.3453
  Prox1 logFC: 0.2663
  Proz logFC: 0.2632
  Prrc2c logFC: 0.4393
  Psat1 logFC: 0.3012
  Psen2 logFC: −0.9474
  Psmb1 logFC: −0.3585
  Psmb3 logFC: −0.3303
  Psmb6 logFC: −0.3194
  Psme1 logFC: −0.394
  Psme4 logFC: 0.2626
  Ptp4a1 logFC: 0.2627
  Ptpn2 logFC: 0.2734
  Ptprc logFC: 0.4165
  Ptprf logFC: 0.3071
  Purb logFC: 0.3525
  Pxk logFC: 0.2819
  Pxmp2 logFC: −0.3671
  Pzp logFC: 0.416
  Rarres1 logFC: −0.4556
  Rbm25 logFC: 0.4215
  Rcan1 logFC: 0.7073
  Rdh7 logFC: −0.4186
  Rdx logFC: 0.3736
  Reep3 logFC: 0.409
  Reep6 logFC: 0.5143
  Rell1 logFC: 0.5912
  Retnlg logFC: 0.3751
  Rexo2 logFC: −0.3263
  Rgn logFC: −1.573
  Rgs16 logFC: 0.3226
  Rlim logFC: 0.3102
  Rnase4 logFC: −1.049
  Rnaseh2c logFC: −0.3257
  Rnf13 logFC: 0.2553
  Rnf144a logFC: 0.313
  Romo1 logFC: −0.3359
  Rpl4 logFC: 0.2839
  Rpl13a logFC: −0.3815
  Rpl13 logFC: −0.2997
  Rpl14 logFC: −0.2776
  Rpl38 logFC: 0.2543
  Rplp0 logFC: −0.4309
  Rps3 logFC: −0.3493
  Rps8 logFC: −0.2746
  Rps9 logFC: −0.3718
  Rps10 logFC: −0.3369
  Rps15 logFC: −0.4552
  Rps18 logFC: −0.4885
  Rps21 logFC: −0.3645
  Rps27l logFC: −0.8659
  Rsp14 logFC: −0.4021
  Saa2 logFC: 0.9645
  Sardh logFC: 0.2692
  Sbno1 logFC: 0.3671
  Sc4mol logFC: −0.3262
  Scaf11 logFC: 0.3598
  Scd1 logFC: 0.7267
  Sco2 logFC: −0.2929
  Scp2 logFC: −0.5191
  Sdhb logFC: −0.2896
  Sdhc logFC: 0.3944
  Sdr9c7 logFC: −0.26
  Sdsl logFC: 0.2593
  Sec14l2 logFC: −0.7897
  Sec31a logFC: 0.263
  Sec61b logFC: −0.2903
  Sec62 logFC: 0.2516
  Sel1l logFC: 0.336
  Selk logFC: −0.3383
  Serpina1b logFC: −0.3018
  Serpina1c logFC: −0.4026
  Serpina3m logFC: 0.9674
  Serpina3n logFC: 0.8483
  Serpina10 logFC: 0.565
  Serpina12 logFC: −0.4534
  Serpinf1 logFC: 0.3196
  Serping1 logFC: 0.4128
  Sf1 logFC: 0.3023
  Sfpq logFC: 0.394
  Sgk1 logFC: 0.2843
  Sh3bgrl logFC: 0.2513
  Sh3glb1 logFC: 0.326
  Shb logFC: 0.3152
  Shmt1 logFC: −0.3932
  Sirt3 logFC: −0.346
  Slc4a4 logFC: 0.4203
  Slc7a2 logFC: 0.3526
  Slc10a1 logFC: −0.3258
  Slc16a6 logFC: 0.9114
  Slc22a1 logFC: −0.7979
  Slc22a30 logFC: −0.3746
  Slc25a10 logFC: 0.3433
  Slc25a13 logFC: 0.2855
  Slc25a20 logFC: 0.38
  Slc25a47 logFC: 0.5027
  Slc27a2 logFC: 0.3853
  Slc27a5 logFC: 0.337
  Slc38a10 logFC: 0.2855
  Slc39a14 logFC: 1.013
  Slc40a1 logFC: 0.467
  Slco1b2 logFC: −1.087
  Slirp logFC: −0.3085
  Smap2 logFC: 0.3489
  Smdt1 logFC: −0.3673
  Smg1 logFC: 0.335
  Snord13 logFC: 0.2611
  Snx10 logFC: 0.2856
  Sod1 logFC: −0.4393
  Sord logFC: −0.3836
  Spp2 logFC: −0.3821
  Sptbn1 logFC: 0.4227
  Srebf1 logFC: 0.2762
  Srgn logFC: 0.9341
  Srp72 logFC: 0.3107
  Srpr logFC: 0.3052
  Srsf11 logFC: 0.4012
  Ssr3 logFC: 0.5218
  St3gal5 logFC: 0.6076
  Stbd1 logFC: −0.2732
  Steap4 logFC: 0.476
  Stk17b logFC: 0.2911
  Stom logFC: 0.3232
  Stt3b logFC: 0.3194
  Suco logFC: 0.251
  Suds3 logFC: 0.2539
  Sult1d1 logFC: 0.4599
  Supt6 logFC: 0.2913
  Surf4 logFC: 0.2586
  Syncrip logFC: 0.2748
  Tars logFC: 0.4921
  Tbl1xr1 logFC: 0.3075
  Tcea3 logFC: −0.355
  Tceb2 logFC: −0.3207
  Tfpi2 logFC: −0.3663
  Tgm2 logFC: 0.3993
  Tgoln1 logFC: 0.3883
  Timm8b logFC: −0.3936
  Timm13 logFC: −0.433
  Tjp1 logFC: 0.2862
